Experiments:
MDA cells = assay: Wound healing / transwell migration with BAPTA-AM, MDA cells; assay type: cell-based, human; conditions: 20 μM BAPTA-AM
Method: (§1) Cells were plated in triplicate into 6-well plates (5×10^5 cell/well) and cultured in DMEM containing 10% FBS. A scratch wounded was generated using sterile plastic 200 μl pipette tip, and floating debris removed by washing with PBS. Cell migration was photographed and measured under phase-contrast microscopy. To measure cell migration after depletion of intracellular calcium, a scratch was made and the wound healing was monitored for 48 hr in the presence of 20 μM of BAPTA-AM (Invitrogen). The percentage of wound healed area was measured as a ratio of occupied area to the total area using Image J program (NIH).

MDA-MB-436 cells = assay: Wound healing migration with BAPTA-AM, MDA-MB-436 cells; assay type: cell-based, human; conditions: MDA-MB-436 cells expressing miR-708, BAPTA-AM 20 μM, 48 hours
Method: as §1

Question: Which results are given for `CC(=O)OCOC(=O)CN(CC(=O)OCOC(C)=O)c1ccccc1OCCOc1ccccc1N(CC(=O)OCOC(C)=O)CC(=O)OCOC(C)=O` [BAPTA-AM]?
Answer: cell migration (MDA cells; MDA control cells): dramatic impairment; cell migration (MDA cells; MDA-miR708 cells): remained less affected; cell migration (MDA-MB-436 cells): rescued the migration defects

Reference: patent publication US9512425B2, “Inhibiting migration of cancer cells” (Cornell University, priority 2012, dated 2016)
